Source: patent US20260226031A1, “NOVEL COMPOUNDS” (NRG THERAPEUTICS LTD., priority 2023, published 2026)

Tests used:
mPTP [1] = experiment: mPTP activity (Ca2+ retention) assay in isolated rat brain mitochondria; type: biochemical; settings: isolated rat brain mitochondria; Fluo5N fluorescence at 10 min after Ca2+ (75 μM) bolus
How it was run: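 Mitochondria freshly isolated from brains of perfused female Sprague Dawley rats, digitonin-treated, in pH 7.4 mannitol/MOPS/KCl buffer with pyruvate, malate, ADP and oligomycin A. Incubated with compound 10 min at RT with 2 μM Fluo5N. Fluorescence then read every 3 s for 10 min.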

mPTP [2] = experiment: mPTP activity (Ca2+ retention) assay in isolated rat liver mitochondria; type: biochemical; settings: isolated rat liver mitochondria; Fluo5N fluorescence at 10 min after CaCl2 (75 μM) bolus; DMSO 0%, 5 μM cyclosporin A 100% inhibition
How it was run: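 Freshly isolated female Sprague Dawley rat liver mitochondria with succinate, rotenone and Fluo5N were preincubated 10 min at RT with compounds (final 30 μM to 1 nM), then challenged with CaCl2. Fluorescence at 10 min gave % inhibition versus DMSO (0%) and 5 μM cyclosporin A (100%); pIC50 calculated.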

| mPTP Rat brain pIC50 (mPTP [1]) | mPTP Rat liver pIC50* (mPTP [2]) | SMILES |
| --- | --- | --- |
| 7.43 | 6.56 | O=C(c1cncc(=O)[nH]1)N1CC(c2cccc(F)c2F)C2(CCC2)C1 (single isomer, unassigned) [Example 43a, 6-(8-(2,3-difluorophenyl)-6-azaspiro[3.4]octane-6-carbonyl)pyrazin-2(1H)-one] |
| 5.69 | 4.94 | O=C(c1cncc(=O)[nH]1)N1CC(c2cccc(F)c2F)C2(CCC2)C1 (single isomer, unassigned) [Example 43b, 6-(8-(2,3-difluorophenyl)-6-azaspiro[3.4]octane-6-carbonyl)pyrazin-2(1H)-one] |
| 7.33 | 5.63 | O=C(c1noc(=O)[nH]1)N1CC(c2cccc(F)c2F)C2(CCC2)C1 (single isomer, unassigned) [Example 44a, 3-(8-(2,3-difluorophenyl)-6-azaspiro[3.4]octane-6-carbonyl)-1,2,4-oxadiazol-5(4H)-one] |
| 5.19 | <4.52 | O=C(c1noc(=O)[nH]1)N1CC(c2cccc(F)c2F)C2(CCC2)C1 (single isomer, unassigned) [Example 44b, 3-(8-(2,3-difluorophenyl)-6-azaspiro[3.4]octane-6-carbonyl)-1,2,4-oxadiazol-5(4H)-one] |
| 7.45 | 6.15 | O=C(c1cncc(=O)[nH]1)N1CC(c2ccc(F)c(F)c2)C2(CCC2)C1 (single isomer, unassigned) [Example 45a, 6-(8-(3,4-difluorophenyl)-6-azaspiro[3.4]octane-6-carbonyl)pyrazin-2(1H)-one] |
| 6.78 | <4.52 | O=C(c1cncc(=O)[nH]1)N1CC(c2ccc(F)c(F)c2)C2(CCC2)C1 (single isomer, unassigned) [Example 45b, 6-(8-(3,4-difluorophenyl)-6-azaspiro[3.4]octane-6-carbonyl)pyrazin-2(1H)-one] |
| 7.44 | 6.28 | O=C(c1cc(O)no1)N1CC(c2ccc(F)c(F)c2)C2(CCC2)C1 (single isomer, unassigned) [Example 46a, (8-(3,4-difluorophenyl)-6-azaspiro[3.4]octan-6-yl)(3-hydroxyisoxazol-5-yl)methanone] |
| 7.03 | <4.52 | O=C(c1cc(O)no1)N1CC(c2ccc(F)c(F)c2)C2(CCC2)C1 (single isomer, unassigned) [Example 46b, (8-(3,4-difluorophenyl)-6-azaspiro[3.4]octan-6-yl)(3-hydroxyisoxazol-5-yl)methanone] |
| 7 | 5.75 | O=C(c1noc(=O)[nH]1)N1CC(c2ccc(F)c(F)c2)C2(CCC2)C1 (single isomer, unassigned) [Example 47a, 3-(8-(3,4-difluorophenyl)-6-azaspiro[3.4]octane-6-carbonyl)-1,2,4-oxadiazol-5(4H)-one] |
| <4.52 | <4.52 | O=C(c1noc(=O)[nH]1)N1CC(c2ccc(F)c(F)c2)C2(CCC2)C1 (single isomer, unassigned) [Example 47b, 3-(8-(3,4-difluorophenyl)-6-azaspiro[3.4]octane-6-carbonyl)-1,2,4-oxadiazol-5(4H)-one] |
| 6.47 | 5.53 | O=C(c1noc(=O)[nH]1)N1CC(c2ccc(F)cc2F)C2(CCC2)C1 (single isomer, unassigned) [Example 48a, 3-(8-(2,4-difluorophenyl)-6-azaspiro[3.4]octane-6-carbonyl)-1,2,4-oxadiazol-5(4H)-one] |
| <4.52 | <4.52 | O=C(c1noc(=O)[nH]1)N1CC(c2ccc(F)cc2F)C2(CCC2)C1 (single isomer, unassigned) [Example 48b, 3-(8-(2,4-difluorophenyl)-6-azaspiro[3.4]octane-6-carbonyl)-1,2,4-oxadiazol-5(4H)-one] |

More lines, now with the values behind:

| SMILES | mPTP Rat brain pIC50 (mPTP [1]) | mPTP Rat liver pIC50* (mPTP [2]) |
| --- | --- | --- |
| O=C(c1cncc(=O)[nH]1)N1CC(c2cccc(F)c2)C2(CCC2)C1 (single isomer, unassigned) [Example 40a, 6-(8-(3-fluorophenyl)-6-azaspiro[3.4]octane-6-carbonyl)pyrazin-2(1H)-one] | 7.34 | 6.55 |
| O=C(c1cncc(=O)[nH]1)N1CC(c2cccc(F)c2)C2(CCC2)C1 (single isomer, unassigned) [Example 40b, 6-(8-(3-fluorophenyl)-6-azaspiro[3.4]octane-6-carbonyl)pyrazin-2(1H)-one] | <4.52 | 4.97 |
| O=C(c1noc(=O)[nH]1)N1CC(c2ccc(F)cc2)C2(CCC2)C1 (single isomer, unassigned) [Example 41a, 3-(8-(4-fluorophenyl)-6-azaspiro[3.4]octane-6-carbonyl)-1,2,4-oxadiazol-5(4H)-one] | 7.19 | 5.95 |
| O=C(c1noc(=O)[nH]1)N1CC(c2ccc(F)cc2)C2(CCC2)C1 (single isomer, unassigned) [Example 41b, 3-(8-(4-fluorophenyl)-6-azaspiro[3.4]octane-6-carbonyl)-1,2,4-oxadiazol-5(4H)-one] | <4.52 | <4.52 |
| O=C(c1cc(O)no1)N1CC(c2ccc(F)cc2F)C2(CCC2)C1 (single isomer, unassigned) [Example 42a, (8-(2,4-difluorophenyl)-6-azaspiro[3.4]octan-6-yl)(3-hydroxyisoxazol-5-yl)methanone] | 6.99 | 6.26 |
| O=C(c1cc(O)no1)N1CC(c2ccc(F)cc2F)C2(CCC2)C1 (single isomer, unassigned) [Example 42b, (8-(2,4-difluorophenyl)-6-azaspiro[3.4]octan-6-yl)(3-hydroxyisoxazol-5-yl)methanone] | <4.52 | <4.52 |
| O=C(c1cncc(O)c1)N1CC(c2ccccc2)C2(CCC2)C1 (stereo not drawn) [Example 1a, (5-hydroxypyridin-3-yl)(8-phenyl-6-azaspiro[3.4]octan-6-yl)methanone] | 6.73 | 5.68 |
| O=C(c1cncc(O)n1)N1CC(c2ccccc2)C2(CCC2)C1 (stereo not drawn) [Example 2, (6-hydroxypyrazin-2-yl)(8-phenyl-6-azaspiro[3.4]octan-6-yl)methanone] | 6.90 | 5.80 |
| CC1(C)CN(C(=O)c2cncc(O)c2)CC1c1ccccc1 (stereo not drawn) [Example 4, (3,3-dimethyl-4-phenylpyrrolidin-1-yl)(5-hydroxypyridin-3-yl)methanone] | 6.22 | 5.47 |
| O=C(c1cncc(=O)[nH]1)N1CC(c2ccccc2F)C2(CCC2)C1 (stereo not drawn) [Example 7, 6-(8-(2-fluorophenyl)-6-azaspiro[3.4]octane-6-carbonyl)pyrazin-2(1H)-one] | 7.11 | 5.95 |
| CC1(C)CN(C(=O)c2cncc(=O)[nH]2)CC1c1ccccc1 (stereo not drawn) [Example 8, 6-(3,3-dimethyl-4-phenylpyrrolidine-1-carbonyl)pyrazin-2(1H)-one] | 6.97 | 6.04 |
| CC1(C)CN(C(=O)c2cncc(=O)[nH]2)CCC1c1ccccc1 (stereo not drawn) [Example 9, 6-(3,3-dimethyl-4-phenylpiperidine-1-carbonyl)pyrazin-2(1H)-one] | 6.61 | 5.28 |
| Cn1nc(C(=O)N2CC(c3ccccc3F)C3(CCC3)C2)[nH]c1=O (stereo not drawn) [Example 11, 5-(8-(2-fluorophenyl)-6-azaspiro[3.4]octane-6-carbonyl)-2-methyl-2,4-dihydro-3H-1,2,4-triazol-3-one] | 6.25 | 4.75 |
| O=C(c1cc(O)no1)N1CC(c2ccccc2)C2(CCC2)C1 (stereo not drawn) [Example 22, (3-hydroxyisoxazol-5-yl)(8-phenyl-6-azaspiro[3.4]octan-6-yl)methanone] | 6.7 | 6.12 |
| O=C(c1noc(=O)[nH]1)N1CC(c2ccccc2)C2(CCC2)C1 (stereo not drawn) [Example 24, 3-[8-Phenyl-6-azaspiro[3.4]octane-6-carbonyl]-4H-1,2,4-oxadiazol-5-one] | 6.75 | 6.02 |
